This note sets out measurements from patent US10610520B2, “Heterocyclic compound” (Takeda Pharmaceutical Company Limited, priority 2016, dated 2020).

In the experiment the target is T1, His-hMAGL (recombinant polyhistidine tagged human MAGL protein) (Homo sapiens, UniProt Q99685).
T1 construct: made in house; host or cells: E. coli BL21(DE3)
T1 sequence (Q99685 1-303): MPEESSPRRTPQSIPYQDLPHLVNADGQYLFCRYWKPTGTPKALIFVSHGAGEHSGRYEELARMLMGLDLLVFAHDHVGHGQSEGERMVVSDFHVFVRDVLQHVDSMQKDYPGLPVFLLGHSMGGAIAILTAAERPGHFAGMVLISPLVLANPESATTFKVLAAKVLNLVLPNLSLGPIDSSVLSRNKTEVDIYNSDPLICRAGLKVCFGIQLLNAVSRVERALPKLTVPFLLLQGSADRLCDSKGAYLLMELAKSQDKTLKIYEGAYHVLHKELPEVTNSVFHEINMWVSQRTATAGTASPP
Description: Measurement of MAGL inhibitory activity (arachidonic acid production from 2-arachidonylglycerol, RapidFire-mass spectrometry). The format is biochemical. As to conditions: MAGL inhibitory rate, test compound 10 μM, 60 min preincubation, 2-arachidonylglycerol substrate. The method in brief: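 Arachidonic acid formed was quantified by online solid-phase extraction and triple-quadrupole MS in negative SRM mode against a d8 internal standard. Reaction: recombinant His-hMAGL (7.5 ng/mL, pH 7.5 Tris buffer with Triton X-100 and BSA) plus 2-AG (5 μL of 150 μM stock) for 10 min at room temperature, quenched with 2% formic acid. Percent inhibition corrected for enzyme-free background.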

In general, inhibition refers to the drop in the measured response relative to a control, in per cent. With `O=C1CCC2(CN(C(=O)c3ccc(-c4ccccc4)cc3Cl)C2)N1` [Example 117, 2-((3-chlorobiphenyl-4-yl)carbonyl)-2,5-diazaspiro[3.4]octan-6-one], the inhibition at 10 µM amounted to 81%. On to `Cc1cc(C(=O)N2CC3(CCC(=O)N3)C2)ccc1-c1ccccc1` [Example 118, 2-((2-methylbiphenyl-4-yl)carbonyl)-2,5-diazaspiro[3.4]octan-6-one], for which the inhibition at 10 µM was found to be 87%. Regarding `O=C1CCC2(CN(C(=O)c3ccc(-c4ccccc4)c(Cl)c3)C2)N1` [Example 119, 2-((2-chlorobiphenyl-4-yl)carbonyl)-2,5-diazaspiro[3.4]octan-6-one], the inhibition at 10 µM stood at 90%. With `O=C1CCC2(CN(C(=O)c3ccc(-c4ccccc4)s3)C2)N1` [Example 126, 2-((5-phenyl-2-thienyl)carbonyl)-2,5-diazaspiro[3.4]octan-6-one] the figure was 85%; with `Cc1cc(-c2ccccc2)sc1C(=O)N1CC2(CCC(=O)N2)C1` [Example 129, 2-((3-methyl-5-phenyl-2-thienyl)carbonyl)-2,5-diazaspiro[3.4]octan-6-one], 89%; with `O=C1CCC2(CN(C(=O)c3ccc(-c4cccc(C(F)(F)F)c4)c(C(F)(F)F)c3)C2)N1` [Example 131, 2-((2,3′-bis(trifluoromethyl)biphenyl-4-yl)carbonyl)-2,5-diazaspiro[3.4]octan-6-one], 99%. Regarding `O=C1CCC2(CN(C(=O)c3ccc(-c4cccc(C(F)(F)F)c4)c(OC(F)(F)F)c3)C2)N1` [Example 132, 2-((2-(trifluoromethoxy)-3′-(trifluoromethyl)biphenyl-4-yl)carbonyl)-2,5-diazaspiro[3.4]octan-6-one], the inhibition at 10 µM stood at 99%. In the case of `O=C1CCC2(CN(C(=O)c3sc4ccccc4c3Cl)C2)N1` [Example 134, 2-((3-chloro-1-benzothiophen-2-yl)carbonyl)-2,5-diazaspiro[3.4]octan-6-one], the inhibition at 10 µM turned out to be 98%. With `COc1ccc2c(Cl)c(C(=O)N3CC4(CCC(=O)N4)C3)sc2c1` [Example 139, 2-((3-chloro-6-methoxy-1-benzothiophen-2-yl)carbonyl)-2,5-diazaspiro[3.4]octan-6-one], the inhibition at 10 µM was 99%.

For `O=C1CCC2(CN(C(=O)c3sc4cc(F)ccc4c3Cl)C2)N1` [Example 140, 2-((3-chloro-6-fluoro-1-benzothiophen-2-yl)carbonyl)-2,5-diazaspiro[3.4]octan-6-one], the inhibition at 10 µM is 99%. Regarding `Cc1c(C(=O)N2CC3(CCC(=O)N3)C2)sc2ccccc12` [Example 141, 2-((3-methyl-1-benzothiophen-2-yl)carbonyl)-2,5-diazaspiro[3.4]octan-6-one], the inhibition at 10 µM was determined as 92%.

As to `Cc1c(C(=O)N2CC3(CCC(=O)N3)C2)sc2cccc(F)c12` [Example 142, 2-((4-fluoro-3-methyl-1-benzothiophen-2-yl)carbonyl)-2,5-diazaspiro[3.4]octan-6-one], the inhibition at 10 µM worked out at 96%. With `O=C1CCC2(CN(C(=O)c3sc4ccc(Cl)cc4c3-c3ccccc3)C2)N1` [Example 143, 2-((5-chloro-3-phenyl-1-benzothiophen-2-yl)carbonyl)-2,5-diazaspiro[3.4]octan-6-one] the figure was 100%. With `O=C1CCC2(CN(C(=O)c3cc4ccc(OCc5ccc(Cl)cc5Cl)cc4s3)C2)N1` [Example 145, 2-((6-((2,4-dichlorobenzyl)oxy)-1-benzothiophen-2-yl)carbonyl)-2,5-diazaspiro[3.4]octan-6-one] the figure was 87%; with `O=C1CCC2(CN(C(=O)c3cc4cccc(Br)c4s3)C2)N1` [Example 146, 2-((7-bromo-1-benzothiophen-2-yl)carbonyl)-2,5-diazaspiro[3.4]octan-6-one], 90%. Take `O=C1CCC2(CN(C(=O)c3cc4ccc(Cl)cc4s3)C2)N1` [Example 147, 2-((6-chloro-1-benzothiophen-2-yl)carbonyl)-2,5-diazaspiro[3.4]octan-6-one]: the inhibition at 10 µM amounted to 83%. For the compound `O=C1CCC2(CN(C(=O)c3cc4cc(OCc5ccc(Cl)cc5Cl)ccc4s3)C2)N1` [Example 149, 2-((5-((2,4-dichlorobenzyl)oxy)-1-benzothiophen-2-yl)carbonyl)-2,5-diazaspiro[3.4]octan-6-one], the inhibition at 10 µM was 83%. Turning to `O=C1CCC2(CN(C(=O)c3cc4cc(-c5ccc(Cl)cc5)ccc4s3)C2)N1` [Example 150, 2-((5-(4-chlorophenyl)-1-benzothiophen-2-yl)carbonyl)-2,5-diazaspiro[3.4]octan-6-one], the inhibition at 10 µM was determined as 83%.

For the compound `Cc1c(C(=O)N2CC3(CCC(=O)N3)C2)sc2ccc([N+](=O)[O-])cc12` [Example 151, 2-((3-methyl-5-nitro-1-benzothiophen-2-yl)carbonyl)-2,5-diazaspiro[3.4]octan-6-one], the inhibition at 10 µM turned out to be 93%.

Turning to `COc1ccc2sc(C(=O)N3CC4(CCC(=O)N4)C3)c(Br)c2c1` [Example 152, 2-((3-bromo-5-methoxy-1-benzothiophen-2-yl)carbonyl)-2,5-diazaspiro[3.4]octan-6-one], the inhibition at 10 µM amounted to 100%. For `O=C1CCC2(CN(C(=O)c3cc4ccc(-c5ccc(Cl)cc5)cc4o3)C2)N1` [Example 169, 2-((6-(4-chlorophenyl)-1-benzofuran-2-yl)carbonyl)-2,5-diazaspiro[3.4]octan-6-one], the inhibition at 10 µM is 80%. With `O=C1CCC2(CN(C(=O)c3ccc(-c4cccc(OCC(F)(F)F)c4)cc3)C2)N1` [Example 170, 2-((3′-(2,2,2-trifluoroethoxy)biphenyl-4-yl)carbonyl)-2,5-diazaspiro[3.4]octan-6-one] the figure was 99%; with `O=C1CCC2(CN(C(=O)c3ccc(-c4cccc(OCC5CC5)c4)cc3)C2)N1` [Example 171, 2-((3′-(cyclopropylmethoxy)biphenyl-4-yl)carbonyl)-2,5-diazaspiro[3.4]octan-6-one], 98%; with `O=C1CCC2(CN(C(=O)c3ccc(-c4ccccc4)cc3OC(F)(F)F)C2)N1` [Example 172, 2-((3-(trifluoromethoxy)biphenyl-4-yl)carbonyl)-2,5-diazaspiro[3.4]octan-6-one], 88%. For the compound `O=C1CCC2(CN(C(=O)[C@H]3CC[C@H](c4ccc(O)cc4)CC3)C2)N1` [Example 173, 2-((trans-4-(4-hydroxyphenyl)cyclohexyl)carbonyl)-2,5-diazaspiro[3.4]octan-6-one], the inhibition at 10 µM was 92%. With `O=C1CCC2(CN(C(=O)c3ccc4scc(-c5ccc(F)cc5)c4c3)C2)N1` [Example 175, 2-((3-(4-fluorophenyl)-1-benzothiophen-5-yl)carbonyl)-2,5-diazaspiro[3.4]octan-6-one] the figure was 88%; with `O=C1CCC2(CN(C(=O)c3sc4cc(OC(F)(F)F)ccc4c3Cl)C2)N1` [Example 176, 2-((3-chloro-6-(trifluoromethoxy)-1-benzothiophen-2-yl)carbonyl)-2,5-diazaspiro[3.4]octan-6-one], 99%.

For the compound `O=C1CCC2(CN(C(=O)c3sc(-c4cccc(C(F)(F)F)c4)cc3Cl)C2)N1` [Example 177, 2-((3-chloro-5-(3-(trifluoromethyl)phenyl)-2-thienyl)carbonyl)-2,5-diazaspiro[3.4]octan-6-one], the inhibition at 10 µM is 98%. As to `O=C1CCC2(CN(C(=O)c3sc(-c4cccc(OCC(F)(F)F)c4)cc3Cl)C2)N1` [Example 178, 2-((3-chloro-5-(3-(2,2,2-trifluoroethoxy)phenyl)-2-thienyl)carbonyl)-2,5-diazaspiro[3.4]octan-6-one], the inhibition at 10 µM worked out at 100%. Regarding `O=C1CCC2(CN(C(=O)c3sc4cc(C5=CCC(F)(F)CC5)ccc4c3Cl)C2)N1` [Example 179, 2-((3-chloro-6-(4,4-difluorocyclohex-1-en-1-yl)-1-benzothiophen-2-yl)carbonyl)-2,5-diazaspiro[3.4]octan-6-one], the inhibition at 10 µM amounted to 100%.

Consider `O=C1CCC2(CN(C(=O)c3sc(-c4ccccc4C(F)(F)F)cc3Cl)C2)N1` [Example 180, 2-((3-chloro-5-(2-(trifluoromethyl)phenyl)-2-thienyl)carbonyl)-2,5-diazaspiro[3.4]octan-6-one], for which the inhibition at 10 µM came out at 87%.

Consider `O=C1CCC2(CN(C(=O)c3sc(-c4cccc(OCC5CC5)c4)cc3Cl)C2)N1` [Example 182, 2-((3-chloro-5-(3-(cyclopropylmethoxy)phenyl)-2-thienyl)carbonyl)-2,5-diazaspiro[3.4]octan-6-one], for which the inhibition at 10 µM is 98%.

Consider `Cc1ccc(-c2ccc3c(Cl)c(C(=O)N4CC5(CCC(=O)N5)C4)sc3c2)cc1` [Example 184, 2-((3-chloro-6-(4-methylphenyl)-1-benzothiophen-2-yl)carbonyl)-2,5-diazaspiro[3.4]octan-6-one], for which the inhibition at 10 µM turned out to be 99%. Turning to `Cc1ccccc1-c1ccc2c(Cl)c(C(=O)N3CC4(CCC(=O)N4)C3)sc2c1` [Example 185, 2-((3-chloro-6-(2-methylphenyl)-1-benzothiophen-2-yl)carbonyl)-2,5-diazaspiro[3.4]octan-6-one], the inhibition at 10 µM turned out to be 99%.

On to `Cc1cccc(-c2ccc3c(Cl)c(C(=O)N4CC5(CCC(=O)N5)C4)sc3c2)c1` [Example 186, 2-((3-chloro-6-(3-methylphenyl)-1-benzothiophen-2-yl)carbonyl)-2,5-diazaspiro[3.4]octan-6-one], for which the inhibition at 10 µM worked out at 101%.
